Laboratory results taken from patent US4866206A, “2-Halomethyl derivatives of 2-amino acids” (Merrell Dow France et Cie, priority 1988, dated 1989).
Where two headings read alike, the source gives them in different places.

Columns and labels:
[1] = molecular target: T1, rat liver ornithine decarboxylase (Rattus norvegicus, UniProt P09057); assay: time-dependent inhibition of rat liver ODC (in vitro); assay type: biochemical
T1 construct: rat liver ornithine decarboxylase in vitro; from tissue; host or cells: rat liver
T1 sequence (P09057 1-461): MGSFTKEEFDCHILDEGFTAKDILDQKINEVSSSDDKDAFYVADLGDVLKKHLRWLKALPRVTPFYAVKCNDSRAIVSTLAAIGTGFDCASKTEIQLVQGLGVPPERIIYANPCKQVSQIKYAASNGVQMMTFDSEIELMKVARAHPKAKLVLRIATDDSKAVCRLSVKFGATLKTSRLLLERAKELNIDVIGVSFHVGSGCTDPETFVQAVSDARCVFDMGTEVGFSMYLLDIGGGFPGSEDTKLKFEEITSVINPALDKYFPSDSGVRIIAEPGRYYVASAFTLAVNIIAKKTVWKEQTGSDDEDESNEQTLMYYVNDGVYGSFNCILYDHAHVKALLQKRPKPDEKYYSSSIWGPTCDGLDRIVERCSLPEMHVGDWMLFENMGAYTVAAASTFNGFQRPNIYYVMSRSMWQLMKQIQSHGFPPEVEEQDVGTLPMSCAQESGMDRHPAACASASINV

[2] = molecular target: T2, ornithine decarboxylase (Rattus norvegicus, UniProt P09057); assay: ODC activity remaining in rat tissues after a single dose (in vivo); set-up: species or system rats
T2 construct: from tissue; host or cells: rat ventral prostate and thymus
T2 sequence (P09057 1-461): T1 sequence (P09057 1-461)
Procedure: The ODC inhibitory activity of a compound can be determined in vitro by the method described by B. Metcalf et al., J. Am. Chem. Soc., 100, 2551 (1978) and in vivo by the method of C. Danzin, Life Sciences, 24, 519 (1979).
2-Fluoromethyl-2,5-diaminopentanoic acid and 2-fluoromethyl-2,6-diaminohexanoic acid were tested for inhibition of ornithine decarboxylase in rats according to the procedure of C. Danzin et al., Life Sciences, 24, 519 (1979).

[3] = tested on: P. aeruginosa (A.T.C.C. 9027); assay: growth and polyamine content of P. aeruginosa cultures; assay type: cell-based; settings: compound by itself
[4] = tested on: E. coli (M.R.C; 59); assay: growth and polyamine content of E. coli cultures; assay type: cell-based; settings: compound by itself
[5] = tested on: prostatic growth in rats; assay: effect on prostatic growth in rats; assay type: in vivo; settings: for % Weight loss of prostate: oral administration for 3 days
Text: Accordingly, the compounds of Formula I can be used as contragestational agents (abortifacients) in female animals when it is desired to terminate early pregnancy. The use of 2-fluoromethyl-2,5-diaminopentanoic acid, and derivatives thereof, as a contragestational agent is described and claimed in U.S. Pat. No. 4,309,442 of P. Bey and M. Jung. […] Danzin et al., Biochem. J., 202, 175 (1982). Accordingly, the compounds of Formula I can be used to treat benign prostatic hypertrophy. The use of 2-fluoromethyl-2,5-diaminopentanoic acid, and derivatives thereof, in the treatment of benign prostatic hypertrophy is described and claimed in the U.S. Pat. No. 4,330,559 of P. Bey and M. Jung.
2-Fluoromethyl-2,5-diaminopentanoic acid was tested for its effect on prostatic growth in rats according to the procedure of C. Danzin et al., Biochem. J., 202, 175 (1982).
(a) Administered dissolved in drinking water employed as only water source for the animals.

[6] = molecular target: T3, P. aeruginosa ODC (Pseudomonas aeruginosa, UniProt Q9HVQ3); assay: time-dependent inhibition of bacterial ODC (in vitro), P. aeruginosa; assay type: biochemical
T3 construct: 14CO2 release from ornithine
T3 sequence (Q9HVQ3 1-387): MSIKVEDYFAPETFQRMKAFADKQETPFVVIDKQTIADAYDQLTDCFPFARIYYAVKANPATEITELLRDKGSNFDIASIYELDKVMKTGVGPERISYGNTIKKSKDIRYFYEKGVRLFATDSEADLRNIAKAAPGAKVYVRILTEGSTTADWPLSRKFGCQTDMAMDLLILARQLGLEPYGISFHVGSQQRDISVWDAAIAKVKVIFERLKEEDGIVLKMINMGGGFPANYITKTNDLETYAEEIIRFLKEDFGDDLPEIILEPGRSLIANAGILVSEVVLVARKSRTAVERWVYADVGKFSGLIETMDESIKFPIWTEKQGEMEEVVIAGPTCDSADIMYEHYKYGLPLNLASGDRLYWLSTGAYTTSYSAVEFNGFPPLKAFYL
Procedure: (§1) 2-Fluoromethyl-2,5-diaminopentanoic acid (MFMO) was tested for in vitro inhibition of ornithine decarboxylase from Escherichia coli and from Pseudomonas aeruginosa according to the procedure described as follows:
(§2) Escherichia coli (M.R.C. 59) and Pseudomonas aeruginosa (A.T.C.C. 9027) were grown as described by Kallio et al., Biochem. J., 200, 69 (1981) in minimal medium [Davis et al., J. Bacteriol., 60, 17 (1950)] at 37° C. Cells were harvested by centrifugation (10 minutes at 10,000 g) and washed once with phosphate-buffered saline, pH 7.2 (0.125M NaCl, 10 mM Na2 HPO4, and 3 mM KH2 PO4). The cell pellet was suspended in 10 mM Tris/HCl (pH 7.5) containing 1 mM dithiothreitol and 0.1 mM EDTA and disrupted by sonication with a Branson Cell Disruptor 350 (5×30 sec, setting 3). Cell debris was removed by centrifugation at 25,000 g for 30 minutes and the supernatant (approximately 16 mg protein/ml), used for the measurement of ornithine decarboxylase, was stored frozen at -20° C. without appreciable loss of activity.
(§3) Ornithine decarboxylase activity was measured by the release of ^14 Co2. Assays contained 100 mM tris/HCl (pH 8.25 for E. coli and pH 7.5 for P. aeruginosa), 0.04 mM pyridoxal phosphate, 1mM dithiotheritol, 10 mM L-ornithine, 2.5 μCi D,L-[1-^14 C]ornithine and 80-120 μg bacterial protein in a total volume of 1 ml. […]
(§4) Time dependent irreversible inhibition of ornithine decarboxylase was determined according to the method of Kallio et al., Biochem. J., 200, 69 (1981). […] At selected times, 20 μl aliquots of the enzyme incubate were removed and transferred to the reaction flasks in which ODC activity was determined. […] The flasks were kept on ice until all time points were taken and then D,L-[1-^14 C]-ornithine was added and ODC activity was determined at 37° C. […]
(§5) Kinetic parameters for the inhibition of ODC were determined as described by Kitz, J. Biol. Chem., 237, 3245 (1962) as modified by Jung et al., Biochem. Biophys. […]

[7] = tested on: female mice; assay: contragestational activity in mice; assay type: in vivo; settings: for Resorption nodules gravid female / Viable feti gravid female: autopsy day 18
Procedure: 2-Fluoromethyl-2,5-diaminopentanoic acid (MFM) was tested for contragestational activity in mice according to the procedure of J. Fozard et al., Eur. J. Pharmacol., 65, 379 (1980).
In this experiment, the compound was given at the doses stated, subcutaneously (s.c.), every 6 hours starting at 12:00 on day 8 of gestation (4 doses). Animals were autopsied on day 18 and the numbers of viable feti and resorption nodules recorded.

[8] = molecular target: T4, E. coli ODC (Escherichia coli, UniProt P21169); assay: time-dependent inhibition of bacterial ODC (in vitro), E. coli; assay type: biochemical, Escherichia coli (M.R.C. 59); set-up: supernatant (approximately 16 mg protein/ml), used for the measurement of ornithine decarboxylase; endogenous in cells; host or cells: Escherichia coli M.R.C; 59, supernatant of sonicated cells
Procedure: as §1, §2, §3, §4, §5

[9] = molecular target: T5, ODC of P. aeruginosa (Pseudomonas aeruginosa, UniProt Q9HVQ3); assay: ODC inhibition in intact P. aeruginosa cells; assay type: cell-based; settings: in words
T5 sequence (Q9HVQ3 1-387): T3 sequence (Q9HVQ3 1-387)
Text: However, by itself, α-MFMO has no effect on cell growth. Thus, […] inhibitory activity is useful only when used in combination with agents which will block other routes of polyamine biosynthesis, e.g. with both (a) α-difluoromethyl arginine, which inhibits arginine decarboxylase, and (b) dicyclohexylammonium sulfate, which inhibits spermidine synthesis.

[10] = molecular target: T4, E. coli ODC; assay type: cell-based
[11] = concentration of compound which gives half-maximal rate of inhibition, time-dependent inhibition
[12] = half-life of inhibition at 10 μM inhibitor
[13] = half-life of inhibition at infinite concentration of inhibitor
[14] = 50 mg/kg s.c. every 6 hours from day 8 of gestation (4 doses)
[15] = 100 mg/kg s.c. every 6 hours from day 8 of gestation (4 doses)
[16] = 200 mg/kg s.c. every 6 hours from day 8 of gestation (4 doses)
[17] = 400 mg/kg s.c. every 6 hours from day 8 of gestation (4 doses)
[18] = 6 hours after single oral dose, 12.5 mg/kg
[19] = 6 hours after single oral dose, 25 mg/kg
[20] = 6 hours after single oral dose, 50 mg/kg
[21] = 6 hours after single oral dose, 100 mg/kg

T4 sequence (P21169 whole entry): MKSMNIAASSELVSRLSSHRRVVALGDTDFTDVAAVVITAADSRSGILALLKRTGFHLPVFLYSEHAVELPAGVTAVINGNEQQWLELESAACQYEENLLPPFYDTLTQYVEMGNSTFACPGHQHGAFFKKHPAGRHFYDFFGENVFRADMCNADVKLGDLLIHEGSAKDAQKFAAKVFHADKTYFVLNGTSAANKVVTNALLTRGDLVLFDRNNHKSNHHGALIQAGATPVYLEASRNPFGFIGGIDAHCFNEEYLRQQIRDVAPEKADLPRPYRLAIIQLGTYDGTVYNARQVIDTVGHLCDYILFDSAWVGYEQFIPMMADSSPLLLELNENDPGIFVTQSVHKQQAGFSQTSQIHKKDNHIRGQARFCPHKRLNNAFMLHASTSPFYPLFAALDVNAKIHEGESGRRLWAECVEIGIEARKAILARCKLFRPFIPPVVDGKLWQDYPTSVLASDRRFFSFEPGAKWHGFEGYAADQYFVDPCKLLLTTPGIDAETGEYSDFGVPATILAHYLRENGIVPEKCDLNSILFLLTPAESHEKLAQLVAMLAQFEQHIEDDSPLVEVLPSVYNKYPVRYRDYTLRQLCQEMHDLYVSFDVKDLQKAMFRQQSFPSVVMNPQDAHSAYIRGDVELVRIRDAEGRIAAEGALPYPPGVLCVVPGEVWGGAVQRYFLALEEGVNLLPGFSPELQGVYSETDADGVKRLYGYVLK

NCCCCC(N)(CCl)C(=O)O (stereo not drawn) [MCML, 2-chloromethyl-2,6-diaminohexanoic acid]
T1/2 [1]: no apparent saturation | t1/2 at 10 μM [1]: 62 min

NCCCC(N)(CCl)C(=O)O (stereo not drawn) [MCMO, 2-chloromethyl-2,5-diaminopentanoic acid]
K I [1, 11]: no apparent saturation | t1/2 at 10 μM [1, 12]: 22 min | T1/2 [1, 13]: no apparent saturation

NCCCCC(N)(CF)C(=O)O (stereo not drawn) [MFML, 2-fluoromethyl-2,6-diaminohexanoic acid]
ODC Activity remaining in ventral prostate ([2]; single oral dose 200 mg/kg, 3 h): 66 ± 6 % Control | ODC Activity remaining in ventral prostate ([2]; single oral dose 200 mg/kg, 6 h): 44 ± 10 % Control | ODC Activity remaining in ventral prostate ([2]; single oral dose 200 mg/kg, 12 h): 74 ± 7 % Control | Ki [1, 11]: 430 µM | t1/2 at 10 μM [1, 12]: 88 min | T1/2 [1, 13]: 2.0 min

NCCCC(N)(CF)C(=O)O (stereo not drawn) [MFMO, 2-Fluoromethyl-2,5-diaminopentanoic acid]
effect on cell growth [3]: no effect | effect on cell growth [4]: no effect | % Weight loss of prostate ([5]; 3.75 g/l in drinking water): -10% | % Weight loss of prostate ([5]; 7.5 g/l in drinking water): -14% | % Weight loss of prostate ([5]; 15 g/l in drinking water): -19% | weight of the ventral prostate ([5]; rats, method of Danzin): significant decrease | Ki ([6]; P. aeruginosa ODC, concentration giving half-maximal rate of inhibition, 20° C., pH 7.5): 300 µM | T1/2 ([6]; P. aeruginosa ODC, half-life at infinite concentrations): 12 min | inhibition of ODC of P. aeruginosa in vitro ([6]; in vitro, in words): inhibit | Resorption nodules gravid female [7, 14]: 3.3 ± 1.1 | Viable feti gravid female [7, 14]: 9.1 ± 1.5 | Resorption nodules gravid female [7, 15]: 2.3 ± 0.6 | Viable feti gravid female [7, 15]: 12.7 ± 0.9 | Resorption nodules gravid female [7, 16]: 4.2 ± 1.2 | Viable feti gravid female [7, 16]: 9.2 ± 1.5 | Resorption nodules gravid female [7, 17]: 8.9 ± 1.9 | Viable feti gravid female [7, 17]: 5.4 ± 1.5 | interruption of embryogenesis ([7]; female mice, method of Fozard): capable of interrupting embryogenesis | Ki ([8]; E. coli ODC, concentration giving half-maximal rate of inhibition, 20° C., pH 8.25): 360 µM | T1/2 ([8]; E. coli ODC, half-life at infinite concentrations): 12 min | inhibition of ODC of E. coli in vitro ([8]; in vitro, in words): inhibit | inhibition of ODC of P. aeruginosa in intact cells [9]: inhibit | inhibition at 2000 µM ([10]; bacteria grown in the presence of 2 mM of the compound): 99% | inhibition of ODC of E. coli in intact cells ([10]; intact cells, in words): inhibit | ODC Activity remaining in ventral prostate ([2]; 5 hours after single i.p. injection, 12.5 mg/kg): 70.5 ± 12.5 % Control | ODC Activity remaining in ventral prostate ([2]; 5 hours after single i.p. injection, 25 mg/kg): 77.0 ± 10.5 % Control | ODC Activity remaining in ventral prostate ([2]; 5 hours after single i.p. injection, 50 mg/kg): 57.0 ± 13.0 % Control | ODC Activity remaining in ventral prostate ([2]; 5 hours after single i.p. injection, 100 mg/kg): 14.5 ± 10.0 % Control | ODC Activity remaining in ventral prostate ([2]; 5 hours after single i.p. injection, 200 mg/kg): 15.5 ± 1.0 % Control | ODC Activity remaining in thymus [2, 18]: 81 ± 6 % Control | ODC Activity remaining in ventral prostate [2, 18]: 98 ± 18 % Control | ODC Activity remaining in thymus [2, 19]: 93 ± 8 % Control | ODC Activity remaining in ventral prostate [2, 19]: 67 ± 7 % Control | ODC Activity remaining in thymus [2, 20]: 99 ± 5 % Control | ODC Activity remaining in ventral prostate [2, 20]: 45 ± 7 % Control | ODC Activity remaining in thymus [2, 21]: 87 ± 6 % Control | ODC Activity remaining in ventral prostate [2, 21]: 44 ± 6 % Control | Ki [1, 11]: 75 µM | t1/2 at 10 μM [1, 12]: 14 min | T1/2 [1, 13]: 1.6 min
